Test results: PMC8746797, “Design, Synthesis, and Structure–Activity Relationship Study of Potent MAPK11 Inhibitors” (Molecules, 2021)
Like-named read-outs stand apart in the source and are kept apart here.

Columns and labels:
MAPK14 = details: cited from earlier work
MAPK11 = MAPK11 (Homo sapiens, UniProt Q15759); test: Enzyme assay against MAPK11 (mobility shift assay); assay type: biochemical; details: for IC50: mobility shift assay, mean ± SD of at least two independent determinations, read-out: MAPK11 Enzyme Inhibitory Activity IC50
Chain of MAPK11 (Q15759 whole entry): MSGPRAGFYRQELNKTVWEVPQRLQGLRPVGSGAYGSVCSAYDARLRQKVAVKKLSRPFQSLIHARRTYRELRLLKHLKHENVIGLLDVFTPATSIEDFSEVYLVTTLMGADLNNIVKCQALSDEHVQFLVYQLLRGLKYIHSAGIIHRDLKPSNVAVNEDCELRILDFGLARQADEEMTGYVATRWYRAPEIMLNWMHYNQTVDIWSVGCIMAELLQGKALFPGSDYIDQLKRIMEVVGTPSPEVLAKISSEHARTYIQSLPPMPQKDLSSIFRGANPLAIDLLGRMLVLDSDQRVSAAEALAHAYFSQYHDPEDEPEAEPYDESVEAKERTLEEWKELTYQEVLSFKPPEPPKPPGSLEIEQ
Procedure: The effect of the above synthesized inhibitors on MAPK11 kinase activity in vitro was assessed using mobility shift assay by ChemPartner. Following the kinase reaction, a part of the substrate was added to a phosphate group under the action of the kinase to yield a product. The substrate and the product have a difference of 3 charges, thereby allowing them to be separated and detected by capillary electrophoresis. […] Finally, the data was fitted to the XLFit Excel plug-in version 5.4.0.8 to calculate the IC50 value.

| IC50 (MAPK11) [nM] | melting point [°C] | SMILES | other results |
| --- | --- | --- | --- |
| 8.4 ± 0.1 | – | NC(=O)CCCOc1ccc2c(c1)C(=O)c1ccc(Nc3ccc(F)cc3F)cc1CC2 [Compound 14a] | – |
| > 10000 | 135.9 to 136.6 | O=S(=O)(c1ccc(Nc2ccc(F)cc2F)cc1)c1cccc(OC[C@H](O)CO)c1 [Compound 23b] | – |
| > 10000 | 136.3 to 136.7 | O=S(=O)(c1ccc(Nc2ccc(F)cc2F)cc1)c1cccc(OC[C@@H](O)CO)c1 [Compound 23c] | – |
| – | 126.8 to 127.4 | COC(=O)CCCOc1cccc(S(=O)(=O)c2ccc(Nc3ccc(F)cc3F)cc2)c1 [Compound 23d] | – |

More lines, now with the values behind:

| SMILES | IC50 (MAPK11) [nM] | melting point [°C] | other results |
| --- | --- | --- | --- |
| O=C1c2ccc(Nc3ccc(F)cc3F)cc2CCc2ccc(OC[C@H](O)CO)cc21 [Compound 12a, reference compound] | 19.2 ± 0.9 | – | IC50 (MAPK14): 5 nM |
| Cc1cc(OC[C@H](O)CO)cc2c1CCc1cc(Nc3ccc(F)cc3F)ccc1C2=O [Compound 12b] | 14.5 ± 0.3 | 135.1 to 135.8 | – |
| O=C1c2ccc(Nc3ccc(F)cc3F)cc2CCc2ccc(OC[C@@H](O)CO)cc21 [Compound 12c] | 32 ± 0.6 | – | – |
| O=C1c2ccc(Nc3ccc(F)cc3F)cc2CCc2ccc(OCCCO)cc21 [Compound 12d] | 25.9 ± 0.7 | – | – |
| Cc1cc(OCCCO)cc2c1CCc1cc(Nc3ccc(F)cc3F)ccc1C2=O [Compound 12e] | 16.4 ± 0.6 | 127.2 to 127.7 | – |
| COC(=O)CCCOc1ccc2c(c1)C(=O)c1ccc(Nc3ccc(F)cc3F)cc1CC2 [Compound 12f] | 61 ± 2.1 | 124.6 to 125 | decrease in potency against MAPK11 relative to 13a (MAPK11; ester 12f vs carboxylic acid 13a): about 10 fold |
| O=C(O)CCCOc1ccc2c(c1)C(=O)c1ccc(Nc3ccc(F)cc3F)cc1CC2 [Compound 13a] | 6.4 ± 0.6 | – | fold more potent than 12a (skepinone-L) against MAPK11 (MAPK11; ratio of IC50 values vs 12a): 3 fold |
| Cc1cc(OCCCC(=O)O)cc2c1CCc1cc(Nc3ccc(F)cc3F)ccc1C2=O [Compound 13b, 4-((8-((2,4-difluorophenyl)amino)-1-methyl-5-oxo-10,11-dihydro-5H-dibenzo [a,d][7]annulen-3-yl)oxy)butanoic acid] | 4.2 ± 0.1 | 120.4 to 120.6 | – |
| O=C1c2ccc(Nc3ccc(F)cc3F)cc2CCc2ccc(OC3CC(C(=O)O)C3)cc21 (stereo not drawn) [Compound 13c] | 14.3 ± 0.6 | 145.3 to 145.9 | – |
| O=C(O)CCCOc1cccc([S+]([O-])c2ccc(Nc3ccc(F)cc3F)cc2)c1 (stereo not drawn) [Compound 25] | 2550 ± 682 | – | decrease in potency against MAPK11 compared to dibenzocycloheptanone compounds (MAPK11): more than a hundred-fold decrease |
| O=C(O)CCCOc1cccc(S(=O)(=O)c2ccc(Nc3ccc(F)cc3F)cc2)c1 [Compound 26] | > 10000 | 132.6 to 133.1 | – |
| CC(C)(C)Cn1c(N)nc2ccc(-c3[nH]c(C(C)(C)C)nc3-c3ccc(F)cc3)nc21 [LY2228820] | – | – | IC50 (MAPK14; Figure 1): 5.3 nM |
